Values after ≈ are worked out from the molar mass of the structure shown.

The target of data set [1] is High affinity cGMP-specific 3',5'-cyclic phosphodiesterase 9A (Homo sapiens, UniProt O76083). Kind of data set: Inhibition of PDE9A2 catalytic domain (unknown origin) using [3H]-cGMP/[3H]-cAMP as substrate after 15 mins by liquid scintillation counting analysis.
Data set [2] addresses High affinity 3',5'-cyclic-AMP phosphodiesterase 7A (Homo sapiens, UniProt Q13946). Kind of data set: Inhibition of PDE7A1 catalytic domain (unknown origin) using [3H]-cGMP/[3H]-cAMP as substrate after 15 mins by liquid scintillation counting analysis.
The target of data set [3] is High affinity cAMP-specific and IBMX-insensitive 3',5'-cyclic phosphodiesterase 8A (Homo sapiens, UniProt O60658). Kind of data set: Inhibition of PDE8A1 catalytic domain (unknown origin) using [3H]-cGMP/[3H]-cAMP as substrate after 15 mins by liquid scintillation counting analysis.
Chain of High affinity cAMP-specific and IBMX-insensitive 3',5'-cyclic phosphodiesterase 8A (O60658 whole entry, the tested form may be a part): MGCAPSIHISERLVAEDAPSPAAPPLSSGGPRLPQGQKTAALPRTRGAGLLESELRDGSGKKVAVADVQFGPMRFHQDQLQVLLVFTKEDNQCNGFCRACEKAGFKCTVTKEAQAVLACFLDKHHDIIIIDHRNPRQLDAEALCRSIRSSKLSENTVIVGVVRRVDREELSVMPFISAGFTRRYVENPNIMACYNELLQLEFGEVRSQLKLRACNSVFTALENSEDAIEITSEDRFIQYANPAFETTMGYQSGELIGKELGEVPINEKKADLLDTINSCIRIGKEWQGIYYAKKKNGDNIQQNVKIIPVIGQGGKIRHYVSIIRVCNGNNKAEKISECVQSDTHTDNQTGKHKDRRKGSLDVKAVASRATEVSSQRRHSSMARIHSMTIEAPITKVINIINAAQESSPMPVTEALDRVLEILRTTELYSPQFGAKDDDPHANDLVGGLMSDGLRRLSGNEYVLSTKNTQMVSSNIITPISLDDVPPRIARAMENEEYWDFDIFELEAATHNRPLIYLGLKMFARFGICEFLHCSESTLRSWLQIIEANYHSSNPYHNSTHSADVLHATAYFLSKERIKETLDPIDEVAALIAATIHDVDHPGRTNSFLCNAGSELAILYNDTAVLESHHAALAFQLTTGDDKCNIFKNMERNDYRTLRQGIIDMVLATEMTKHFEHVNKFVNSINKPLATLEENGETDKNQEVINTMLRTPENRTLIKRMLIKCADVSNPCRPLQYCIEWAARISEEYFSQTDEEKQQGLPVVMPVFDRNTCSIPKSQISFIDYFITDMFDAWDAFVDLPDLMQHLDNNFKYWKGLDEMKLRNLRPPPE
Data set [4] addresses cGMP-dependent 3',5'-cyclic phosphodiesterase (Homo sapiens, UniProt O00408). Briefly: Inhibition of PDE2A3 catalytic domain (unknown origin) using [3H]-cGMP/[3H]-cAMP as substrate after 15 mins by liquid scintillation counting analysis.
The target of data set [5] is cGMP-inhibited 3',5'-cyclic phosphodiesterase 3A (Homo sapiens, UniProt Q14432). Briefly: Inhibition of PDE3A catalytic domain (unknown origin) using [3H]-cGMP/[3H]-cAMP as substrate after 15 mins by liquid scintillation counting analysis.
Chain of cGMP-inhibited 3',5'-cyclic phosphodiesterase 3A (Q14432 whole entry, the tested form may be a part): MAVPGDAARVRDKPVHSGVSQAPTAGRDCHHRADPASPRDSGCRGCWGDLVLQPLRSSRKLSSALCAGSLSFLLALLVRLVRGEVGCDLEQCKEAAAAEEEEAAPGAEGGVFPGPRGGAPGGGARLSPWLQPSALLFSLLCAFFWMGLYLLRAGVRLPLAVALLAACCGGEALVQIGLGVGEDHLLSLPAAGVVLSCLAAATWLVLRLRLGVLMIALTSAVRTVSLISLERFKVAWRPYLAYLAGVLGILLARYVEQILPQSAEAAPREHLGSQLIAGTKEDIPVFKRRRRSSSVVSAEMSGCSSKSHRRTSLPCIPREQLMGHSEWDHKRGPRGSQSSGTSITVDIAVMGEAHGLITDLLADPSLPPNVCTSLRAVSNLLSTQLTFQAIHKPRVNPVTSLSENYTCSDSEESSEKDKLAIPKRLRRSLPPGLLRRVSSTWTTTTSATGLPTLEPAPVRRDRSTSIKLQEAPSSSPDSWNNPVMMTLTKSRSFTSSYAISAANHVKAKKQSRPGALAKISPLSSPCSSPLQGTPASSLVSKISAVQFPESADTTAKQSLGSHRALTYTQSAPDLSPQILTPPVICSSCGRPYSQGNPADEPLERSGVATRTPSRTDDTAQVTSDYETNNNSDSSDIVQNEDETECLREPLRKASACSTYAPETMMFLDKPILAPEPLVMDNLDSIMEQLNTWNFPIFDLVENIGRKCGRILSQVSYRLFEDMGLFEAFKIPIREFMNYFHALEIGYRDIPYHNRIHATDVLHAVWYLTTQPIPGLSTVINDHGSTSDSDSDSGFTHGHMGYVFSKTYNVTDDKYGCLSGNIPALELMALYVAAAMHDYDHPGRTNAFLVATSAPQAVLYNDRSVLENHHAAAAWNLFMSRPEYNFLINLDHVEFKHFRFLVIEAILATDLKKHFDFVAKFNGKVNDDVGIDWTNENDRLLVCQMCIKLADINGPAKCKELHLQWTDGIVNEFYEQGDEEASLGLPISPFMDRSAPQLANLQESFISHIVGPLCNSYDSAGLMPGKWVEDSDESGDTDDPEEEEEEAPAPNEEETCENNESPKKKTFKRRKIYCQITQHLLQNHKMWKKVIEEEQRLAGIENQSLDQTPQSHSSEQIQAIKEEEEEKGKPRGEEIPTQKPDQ
A short description of data set [6]: Plasma protein binding in human at 1 to 5 uM after 4 hrs by LC/MS/MS analysis. Conditions: read-out: PPB. It counts as ADME, cell-free.
Data set [7] in a line: Solubility of the compound in simulated gastric fluid at pH 1.4 after 24 to 48 hrs by HPLC analysis. It counts as ADME. The following applies: simulated gi fluid.
Data set [8] is described as follows: Solubility of the compound in simulated intestinal fluid at pH 6.8 after 24 to 48 hrs by HPLC analysis. Conditions: simulated gi fluid. It counts as ADME.
Data set [9] concerns HepG2. Briefly: Hypoglycemic effect in human HepG2 cells assessed as reduction of 8-Br-cAMP/dexamethasone-induced G-6-Pase mRNA expression at 100 nM (reference value: 233%). It counts as functional. On the set-up: scale not given: the % may be the effect or the level left.
The subject of data set [10] is HepG2. Kind of data set: Hypoglycemic effect in human HepG2 cells assessed as reduction of 8-Br-cAMP/dexamethasone-induced G-6-Pase mRNA expression at 10 nM (reference value: 233%). On the set-up: scale not given: the % may be the effect or the level left. It counts as functional.
Data set [11] relates to HepG2. Kind of data set: Hypoglycemic effect in human HepG2 cells assessed as reduction of 8-Br-cAMP/dexamethasone-induced PEPCK mRNA expression at 1000 nM (reference value: 184%). It is filed as functional. On the set-up: scale not given: the % may be the effect or the level left.
Data set [12] relates to HepG2. Kind of data set: Hypoglycemic effect in human HepG2 cells assessed as reduction of 8-Br-cAMP/dexamethasone-induced PEPCK mRNA expression at 100 nM (reference value: 184%). It is filed as functional. Also noted: scale not given: the % may be the effect or the level left.
In data set [13] the test system is HepG2. Kind of data set: Hypoglycemic effect in human HepG2 cells assessed as reduction of 8-Br-cAMP/dexamethasone-induced PEPCK mRNA expression at 10 nM (reference value: 184%). On the set-up: scale not given: the % may be the effect or the level left. It is filed as functional.
Another data set relates to Liver. Briefly: Half life in CD-1 mouse liver microsomes at […] incubated for 5 mins prior to NADPH addition measured after 30 mins by LC/MS/MS analysis. It is filed as ADME. The following applies: 0.5 h.
Data set [14] can be described thus: Apparent clearance in CD-1 mouse liver microsomes at […] incubated for 5 mins prior to NADPH addition measured after 30 mins by LC/MS/MS analysis. It counts as ADME. Conditions: read-out: CL(app).
A short description of data set [15]: Hepatic clearance in CD-1 mouse liver microsomes at […] incubated for 5 mins prior to NADPH addition measured after 30 mins by LC/MS/MS analysis. It is filed as ADME.
Data set [16] concerns Mus musculus. Briefly: Acute toxicity in KM mouse assessed as poisoned symptom at 1 to 1200 mg/kg, po measured up to 2 weeks. It counts as organism-based. On the set-up: dose 1-1200 mg/kg, route oral. Conditions: in vivo, 336 h.
For data set [17], the system named is Mus musculus. Kind of data set: Acute toxicity in KM mouse assessed as mortality at 1 to 1200 mg/kg, po measured up to 2 weeks. It counts as organism-based. Also noted: dose 1-1200 mg/kg, route oral. The following applies: in vivo, 336 h.
The test system of data set [18] is Mus musculus. Briefly: Acute toxicity in KM mouse assessed as abnormal behaviour at 1 to 1200 mg/kg, po measured up to 2 weeks. On the set-up: dose 1-1200 mg/kg, route oral. It is filed as organism-based. The following applies: in vivo, 336 h.
The subject of data set [19] is Mus musculus. Briefly: Acute toxicity in KM mouse assessed as change in water/food consumption at 1 to 1200 mg/kg, po measured up to 2 weeks. It counts as organism-based. Also noted: dose 1-1200 mg/kg, route oral. Conditions: in vivo, 336 h.
Data set [20] deals with Mus musculus. Briefly: Acute toxicity in KM mouse assessed as change in body weight at 1 to 1200 mg/kg, po measured up to 2 weeks. It counts as organism-based. Also noted: dose 1-1200 mg/kg, route oral. The following applies: in vivo, 336 h.
Data set [21] concerns HepG2. Kind of data set: Hypoglycemic effect in human HepG2 cells assessed as reduction of 8-Br-cAMP/dexamethasone-induced G-6-Pase mRNA expression at 1000 nM (reference value: 233%). It is filed as functional. Also noted: scale not given: the % may be the effect or the level left.
A further data set can be described thus: in vitro. The following applies: CD-1, mouse, liver microsomes.

Chain of cGMP-dependent 3',5'-cyclic phosphodiesterase (O00408 whole entry, the tested form may be a part): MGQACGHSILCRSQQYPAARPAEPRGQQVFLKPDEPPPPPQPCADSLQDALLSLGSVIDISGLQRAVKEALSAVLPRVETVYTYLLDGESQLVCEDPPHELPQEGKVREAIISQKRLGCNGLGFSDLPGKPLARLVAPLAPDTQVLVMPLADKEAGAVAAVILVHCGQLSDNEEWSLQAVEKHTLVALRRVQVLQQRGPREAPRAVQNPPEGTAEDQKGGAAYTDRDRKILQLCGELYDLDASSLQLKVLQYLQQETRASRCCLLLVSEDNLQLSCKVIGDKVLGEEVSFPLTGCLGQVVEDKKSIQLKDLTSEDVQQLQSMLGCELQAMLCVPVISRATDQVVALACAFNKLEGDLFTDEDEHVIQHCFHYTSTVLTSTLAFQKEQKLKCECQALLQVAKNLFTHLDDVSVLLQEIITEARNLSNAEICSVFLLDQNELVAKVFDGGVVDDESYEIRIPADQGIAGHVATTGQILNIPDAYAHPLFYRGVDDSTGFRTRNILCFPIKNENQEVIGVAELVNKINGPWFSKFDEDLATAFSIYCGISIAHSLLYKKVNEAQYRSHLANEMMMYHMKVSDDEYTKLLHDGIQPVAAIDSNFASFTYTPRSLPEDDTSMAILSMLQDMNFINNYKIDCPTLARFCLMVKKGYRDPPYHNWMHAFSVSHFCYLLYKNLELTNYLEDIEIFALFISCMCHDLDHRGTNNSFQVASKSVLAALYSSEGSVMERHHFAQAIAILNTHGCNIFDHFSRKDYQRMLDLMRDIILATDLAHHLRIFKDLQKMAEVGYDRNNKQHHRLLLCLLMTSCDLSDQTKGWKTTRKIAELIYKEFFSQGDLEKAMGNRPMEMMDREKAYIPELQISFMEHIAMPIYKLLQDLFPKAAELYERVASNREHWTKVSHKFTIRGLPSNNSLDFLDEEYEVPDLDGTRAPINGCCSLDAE
Chain of High affinity 3',5'-cyclic-AMP phosphodiesterase 7A (Q13946 whole entry, the tested form may be a part): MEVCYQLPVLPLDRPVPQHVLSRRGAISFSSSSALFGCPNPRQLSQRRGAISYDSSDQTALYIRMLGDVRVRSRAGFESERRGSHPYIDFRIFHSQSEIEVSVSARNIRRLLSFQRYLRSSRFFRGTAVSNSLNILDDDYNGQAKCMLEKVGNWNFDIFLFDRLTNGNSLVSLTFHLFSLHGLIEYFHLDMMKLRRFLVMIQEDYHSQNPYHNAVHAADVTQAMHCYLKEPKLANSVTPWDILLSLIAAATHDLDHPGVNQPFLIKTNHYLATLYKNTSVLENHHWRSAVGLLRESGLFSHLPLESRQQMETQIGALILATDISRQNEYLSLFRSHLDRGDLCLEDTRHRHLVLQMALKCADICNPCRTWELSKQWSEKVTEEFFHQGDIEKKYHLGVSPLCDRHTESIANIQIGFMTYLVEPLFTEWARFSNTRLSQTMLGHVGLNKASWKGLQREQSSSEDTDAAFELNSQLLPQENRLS
Chain of High affinity cGMP-specific 3',5'-cyclic phosphodiesterase 9A (O76083 whole entry, the tested form may be a part): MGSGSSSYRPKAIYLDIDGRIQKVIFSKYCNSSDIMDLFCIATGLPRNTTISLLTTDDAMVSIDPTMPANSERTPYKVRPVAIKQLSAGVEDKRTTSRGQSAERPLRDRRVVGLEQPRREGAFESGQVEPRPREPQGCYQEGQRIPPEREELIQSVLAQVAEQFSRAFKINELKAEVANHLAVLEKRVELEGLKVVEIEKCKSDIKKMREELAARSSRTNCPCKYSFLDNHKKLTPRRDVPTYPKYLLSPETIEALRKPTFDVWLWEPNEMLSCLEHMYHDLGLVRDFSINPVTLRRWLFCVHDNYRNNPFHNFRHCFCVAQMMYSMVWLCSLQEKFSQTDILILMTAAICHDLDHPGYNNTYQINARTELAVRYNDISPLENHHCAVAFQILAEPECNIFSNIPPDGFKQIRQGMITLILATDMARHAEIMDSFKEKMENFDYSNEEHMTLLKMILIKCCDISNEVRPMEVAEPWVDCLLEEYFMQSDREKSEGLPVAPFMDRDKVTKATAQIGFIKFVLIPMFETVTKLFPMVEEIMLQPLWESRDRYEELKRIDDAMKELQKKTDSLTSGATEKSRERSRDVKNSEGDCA

Take `COc1ccc(NC(=O)[C@@H](C)Nc2nc3c(cnn3-c3ccccc3Cl)c(=O)[nH]2)cc1`: the 50% inhibitory concentration (IC50) in data set [1] is 0.0064 µM; in data set [2] it was 51.2 µM; in data set [3], over 100 µM.
Turning to `COc1ccc(NC(=O)[C@H](C)Nc2nc3c(cnn3-c3ccccc3Cl)c(=O)[nH]2)cc1`, the 50% inhibitory concentration (IC50) in data set [2] is over 100 µM; in [3], over 100 µM; in data set [4], over 50 µM; in [5], over 50 µM. The fraction unbound at 4 h, up to 5 µM in [6] is under 0.057. The solubility was 8 µg/mL (≈ 18.2 µM) in [7] and 13 µg/mL (≈ 29.6 µM) in data set [8].
For the compound `COc1ccc(NC(=O)[C@@H](C)Nc2nc3c(cnn3C3CCCC3)c(=O)[nH]2)cc1`, the Activity in the data set with HepG2 [9] is on record as 93.2%; with HepG2 [10] it was 98.4%; with HepG2 [11], 105%; in the data set on HepG2 [12] it was 96.5%; with HepG2 [13], 108%; in the data set on Mus musculus [16] it was “Non-toxic”. The Activity entry with Mus musculus [17] is given as “Non-toxic”; with Mus musculus [18] it was “Non-toxic”; in the data set with Mus musculus [19], “Non-toxic”; with Mus musculus [20], “Non-toxic”; in the data set on HepG2 [21] it was 97.2%. In addition, the values for the IC50 in data set [3] and in data set [4] were over 100 µM and 13 µM, respectively. Moreover, the fraction unbound at 4 h, up to 5 µM in data set [6] is under 0.057. The same compound gave a solubility in data set [7] of 26 µg/mL (≈ 65.6 µM). Also, the t1/2 in the data set with Liver turned out to be 22.3 min. The CLint scaled at […] in data set [14] amounted to 244 mL/min/kg. Besides, the CLhep predicted at […] in data set [15] was 65.8 mL/min/kg.
`COc1ccc(NC(=O)[C@H](C)Nc2nc3c(cnn3C3CCCC3)c(=O)[nH]2)cc1`: in data set [3], the IC50 was over 100 µM. Moreover, the fraction unbound at 4 h, up to 5 µM in [6] was under 0.057. In addition, the solubility in data set [7] is 23 µg/mL (≈ 58 µM); in data set [8], 31 µg/mL (≈ 78.2 µM).
Consider `C[C@]12CC[C@H]3[C@@H](CCC4=CC(=O)CC[C@@]43C)[C@@H]1CC[C@@H]2O` [TESTOSTERONE], for which the t1/2 with Liver is listed as 2 min. For the same compound, in data set [14], the CLint scaled at […] was determined as 2730 mL/min/kg. The CLhep predicted at […] in [15] is 87.1 mL/min/kg. For the same compound, the hepatic extraction ratio at 0.5 h, […] in the data set “in vitro” is 0.968.
For `CC(=O)CC(c1ccccc1)c1c(O)c2ccccc2oc1=O` (stereo not drawn) [WARFARIN], the CLint scaled at […] in data set [14] is 30.9 mL/min/kg. In [15], the CLhep predicted at […] is 23 mL/min/kg.

Values taken from ChEMBL document CHEMBL3351564, “Discovery of a phosphodiesterase 9A inhibitor as a potential hypoglycemic agent” (J Med Chem, 2014).
